Tests used:
ABL = biological target: T1, ABL (Homo sapiens, UniProt P00519); assay: In vitro kinase assay (Z′-LYTE); assay type: biochemical; details: read-out: % of inhibition of the kinase compared to the control
T1 construct: purchased Invitrogen
Procedure: (§1) The inhibitory activity of the compounds on several kinases including BRAF, EGFR (ErbB1), EGFR (ErbB1) T790M L858R, FGFR2, KDR (VEGFR2), PDGFRA (PDGFR alpha), SRC and other was evaluated by Invitrogen using the Z′-LYTE® technology. Briefly, the Z′-LYTE® biochemical assay employs a fluorescence-based, coupled-enzyme format and is based on the differential sensitivity of phosphorylated and non-phosphorylated peptides to proteolytic cleavage. The peptide substrate is labeled with two fluorophores—one at each end—that make up a FRET pair. A ratiometric method, which calculates the ratio (the Emission Ratio) of donor emission to acceptor emission after excitation of the donor fluorophore at 400 nm, is used to quantitate reaction progress.
(§2) The compounds are screened in 1% DMSO (final) in the well. For 10 point titrations, 3-fold serial dilutions are conducted from the starting concentration. All Peptide/Kinase Mixtures are diluted to a 2× working concentration in the appropriate Kinase Buffer. All ATP Solutions are diluted to a 4× working concentration in Kinase Buffer (50 mM HEPES pH 7.5, 0.01% BRIJ-35, 10 mM MgCl2, 1 mM EGTA). ATP Km apparent is previously determined using a Z′-LYTE® assay.
(§3) Each compound was incubated at a concentration of 100 nM (excepted to test the activity against ABL and ABL T315I for which the compounds were incubated at a concentration of 10 μM) and the tables B1 to B12 summarize the results obtained showing the inhibitory power of a compound. The inhibitory activity of OR0512 was also investigated using the same assays and the kinases for which activity was inhibited at more than 50% at the concentration of 100 nM of OR0512 are listed in the table B13.

ABL T315I = biological target: T2, ABL T315I (Homo sapiens, UniProt P00519, T315I); assay: In vitro kinase assay (Z′-LYTE); assay type: biochemical; details: read-out: % of inhibition of the kinase compared to the control
T2 construct: purchased Invitrogen
Procedure: as §1, §2, §3

BRAF = biological target: T3, BRAF (Homo sapiens, UniProt P15056); assay: In vitro kinase assay (Z′-LYTE); assay type: biochemical; details: compound 100 nM; ATP 100 μM; read-out: % of inhibition of the kinase compared to the control
T3 construct: purchased Invitrogen
Procedure: as §1, §2, §3

EGFR (ErbB1) = biological target: T4, EGFR (ErbB1) (Homo sapiens, UniProt P00533); assay: In vitro kinase assay (Z′-LYTE); assay type: biochemical; details: read-out: % of inhibition of the kinase compared to the control
T4 construct: purchased Invitrogen
Procedure: as §1, §2, §3

EGFR (ErbB1) T790M L858R = biological target: T5, EGFR (ErbB1) T790M L858R (Homo sapiens, UniProt P00533, L858R/T790M); assay: In vitro kinase assay (Z′-LYTE); assay type: biochemical; details: read-out: % of inhibition of the kinase compared to the control
T5 construct: purchased Invitrogen
T5 sequence (P00533 25-1210 T790M/L858R): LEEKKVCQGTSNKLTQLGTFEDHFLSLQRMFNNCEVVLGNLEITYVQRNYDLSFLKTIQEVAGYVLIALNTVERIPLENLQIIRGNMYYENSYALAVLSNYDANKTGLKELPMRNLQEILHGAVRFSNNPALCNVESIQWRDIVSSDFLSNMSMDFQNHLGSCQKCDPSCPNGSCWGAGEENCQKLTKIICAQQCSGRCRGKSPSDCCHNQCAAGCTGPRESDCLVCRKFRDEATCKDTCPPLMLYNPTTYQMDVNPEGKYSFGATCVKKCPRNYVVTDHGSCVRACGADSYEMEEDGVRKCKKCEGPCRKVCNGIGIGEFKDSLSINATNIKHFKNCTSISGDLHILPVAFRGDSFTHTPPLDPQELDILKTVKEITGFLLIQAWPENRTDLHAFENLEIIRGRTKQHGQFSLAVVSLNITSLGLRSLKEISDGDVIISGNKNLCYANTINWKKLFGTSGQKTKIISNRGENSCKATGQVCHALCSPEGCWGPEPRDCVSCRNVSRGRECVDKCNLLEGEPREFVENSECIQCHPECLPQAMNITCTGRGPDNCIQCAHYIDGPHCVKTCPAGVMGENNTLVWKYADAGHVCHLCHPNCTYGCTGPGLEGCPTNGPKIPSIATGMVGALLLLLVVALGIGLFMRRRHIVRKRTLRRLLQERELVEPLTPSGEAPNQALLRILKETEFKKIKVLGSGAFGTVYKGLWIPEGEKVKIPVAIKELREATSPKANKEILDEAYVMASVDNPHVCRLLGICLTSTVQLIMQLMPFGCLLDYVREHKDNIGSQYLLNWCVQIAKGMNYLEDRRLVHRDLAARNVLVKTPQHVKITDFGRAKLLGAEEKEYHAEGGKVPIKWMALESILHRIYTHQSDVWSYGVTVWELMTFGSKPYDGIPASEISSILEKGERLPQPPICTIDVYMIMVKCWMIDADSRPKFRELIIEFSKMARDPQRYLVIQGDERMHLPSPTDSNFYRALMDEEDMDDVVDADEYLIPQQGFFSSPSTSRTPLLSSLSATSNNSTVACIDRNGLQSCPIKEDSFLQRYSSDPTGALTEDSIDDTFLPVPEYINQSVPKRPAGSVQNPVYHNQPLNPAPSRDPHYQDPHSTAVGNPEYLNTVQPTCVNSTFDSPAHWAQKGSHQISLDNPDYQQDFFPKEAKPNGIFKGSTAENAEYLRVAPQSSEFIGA
Procedure: as §1, §2, §3

FGFR1 = biological target: T6, FGFR1 (Homo sapiens, UniProt P11362); assay: In vitro kinase assay (Z′-LYTE); assay type: biochemical; details: read-out: % of inhibition of the kinase compared to the control
T6 construct: purchased Invitrogen
T6 sequence (P11362 22-822): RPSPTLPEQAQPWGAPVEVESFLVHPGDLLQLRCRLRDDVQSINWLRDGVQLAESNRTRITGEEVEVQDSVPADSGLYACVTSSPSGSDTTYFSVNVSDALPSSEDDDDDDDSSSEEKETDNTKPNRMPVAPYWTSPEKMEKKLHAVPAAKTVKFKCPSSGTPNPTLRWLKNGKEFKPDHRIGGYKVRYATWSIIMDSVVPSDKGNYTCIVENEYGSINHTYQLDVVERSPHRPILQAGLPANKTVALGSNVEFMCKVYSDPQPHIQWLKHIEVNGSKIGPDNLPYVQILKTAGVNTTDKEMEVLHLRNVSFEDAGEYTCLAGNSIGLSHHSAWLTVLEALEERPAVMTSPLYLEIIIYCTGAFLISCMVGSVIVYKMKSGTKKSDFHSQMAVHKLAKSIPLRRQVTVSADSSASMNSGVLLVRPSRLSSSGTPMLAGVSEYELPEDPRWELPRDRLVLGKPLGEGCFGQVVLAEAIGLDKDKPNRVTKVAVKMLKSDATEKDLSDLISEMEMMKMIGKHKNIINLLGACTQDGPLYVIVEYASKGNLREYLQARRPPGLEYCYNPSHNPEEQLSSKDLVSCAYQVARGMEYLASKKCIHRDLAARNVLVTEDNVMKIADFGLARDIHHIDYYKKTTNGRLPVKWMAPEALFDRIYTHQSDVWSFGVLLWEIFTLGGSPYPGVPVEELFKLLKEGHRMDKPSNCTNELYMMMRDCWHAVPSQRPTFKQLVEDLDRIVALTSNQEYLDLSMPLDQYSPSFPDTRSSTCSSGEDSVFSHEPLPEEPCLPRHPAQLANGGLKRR
Procedure: as §1, §2, §3

FGFR2 = biological target: T7, FGFR2 (Homo sapiens, UniProt P21802); assay: In vitro kinase assay (Z′-LYTE); assay type: biochemical; details: read-out: % of inhibition of the kinase compared to the control
T7 construct: purchased Invitrogen
T7 sequence (P21802 22-821): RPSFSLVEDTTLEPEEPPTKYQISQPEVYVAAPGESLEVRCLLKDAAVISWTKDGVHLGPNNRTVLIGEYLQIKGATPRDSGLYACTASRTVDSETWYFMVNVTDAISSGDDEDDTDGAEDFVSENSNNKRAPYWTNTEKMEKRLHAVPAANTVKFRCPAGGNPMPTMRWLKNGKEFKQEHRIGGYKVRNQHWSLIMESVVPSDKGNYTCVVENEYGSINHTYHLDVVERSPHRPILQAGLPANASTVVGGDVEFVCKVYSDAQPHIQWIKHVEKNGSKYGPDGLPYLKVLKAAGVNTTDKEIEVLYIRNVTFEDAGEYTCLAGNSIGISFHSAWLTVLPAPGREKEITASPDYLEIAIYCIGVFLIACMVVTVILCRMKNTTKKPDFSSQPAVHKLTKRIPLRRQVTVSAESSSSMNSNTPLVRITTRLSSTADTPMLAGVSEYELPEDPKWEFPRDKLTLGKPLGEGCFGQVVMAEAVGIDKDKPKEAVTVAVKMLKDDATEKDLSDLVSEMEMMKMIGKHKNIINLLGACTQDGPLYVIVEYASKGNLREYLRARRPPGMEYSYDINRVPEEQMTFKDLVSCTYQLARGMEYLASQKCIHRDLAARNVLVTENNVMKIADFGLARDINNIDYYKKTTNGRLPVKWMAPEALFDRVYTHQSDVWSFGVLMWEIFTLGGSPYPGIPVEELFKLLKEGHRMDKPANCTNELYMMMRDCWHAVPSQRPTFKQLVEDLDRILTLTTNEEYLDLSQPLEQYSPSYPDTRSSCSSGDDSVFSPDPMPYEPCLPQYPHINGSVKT
Procedure: as §1, §2, §3

KDR (VEGFR2) = biological target: T8, KDR (VEGFR2) (Homo sapiens, UniProt P35968); assay: In vitro kinase assay (Z′-LYTE); assay type: biochemical; details: read-out: % of inhibition of the kinase compared to the control
T8 construct: purchased Invitrogen
T8 sequence (P35968 20-1356): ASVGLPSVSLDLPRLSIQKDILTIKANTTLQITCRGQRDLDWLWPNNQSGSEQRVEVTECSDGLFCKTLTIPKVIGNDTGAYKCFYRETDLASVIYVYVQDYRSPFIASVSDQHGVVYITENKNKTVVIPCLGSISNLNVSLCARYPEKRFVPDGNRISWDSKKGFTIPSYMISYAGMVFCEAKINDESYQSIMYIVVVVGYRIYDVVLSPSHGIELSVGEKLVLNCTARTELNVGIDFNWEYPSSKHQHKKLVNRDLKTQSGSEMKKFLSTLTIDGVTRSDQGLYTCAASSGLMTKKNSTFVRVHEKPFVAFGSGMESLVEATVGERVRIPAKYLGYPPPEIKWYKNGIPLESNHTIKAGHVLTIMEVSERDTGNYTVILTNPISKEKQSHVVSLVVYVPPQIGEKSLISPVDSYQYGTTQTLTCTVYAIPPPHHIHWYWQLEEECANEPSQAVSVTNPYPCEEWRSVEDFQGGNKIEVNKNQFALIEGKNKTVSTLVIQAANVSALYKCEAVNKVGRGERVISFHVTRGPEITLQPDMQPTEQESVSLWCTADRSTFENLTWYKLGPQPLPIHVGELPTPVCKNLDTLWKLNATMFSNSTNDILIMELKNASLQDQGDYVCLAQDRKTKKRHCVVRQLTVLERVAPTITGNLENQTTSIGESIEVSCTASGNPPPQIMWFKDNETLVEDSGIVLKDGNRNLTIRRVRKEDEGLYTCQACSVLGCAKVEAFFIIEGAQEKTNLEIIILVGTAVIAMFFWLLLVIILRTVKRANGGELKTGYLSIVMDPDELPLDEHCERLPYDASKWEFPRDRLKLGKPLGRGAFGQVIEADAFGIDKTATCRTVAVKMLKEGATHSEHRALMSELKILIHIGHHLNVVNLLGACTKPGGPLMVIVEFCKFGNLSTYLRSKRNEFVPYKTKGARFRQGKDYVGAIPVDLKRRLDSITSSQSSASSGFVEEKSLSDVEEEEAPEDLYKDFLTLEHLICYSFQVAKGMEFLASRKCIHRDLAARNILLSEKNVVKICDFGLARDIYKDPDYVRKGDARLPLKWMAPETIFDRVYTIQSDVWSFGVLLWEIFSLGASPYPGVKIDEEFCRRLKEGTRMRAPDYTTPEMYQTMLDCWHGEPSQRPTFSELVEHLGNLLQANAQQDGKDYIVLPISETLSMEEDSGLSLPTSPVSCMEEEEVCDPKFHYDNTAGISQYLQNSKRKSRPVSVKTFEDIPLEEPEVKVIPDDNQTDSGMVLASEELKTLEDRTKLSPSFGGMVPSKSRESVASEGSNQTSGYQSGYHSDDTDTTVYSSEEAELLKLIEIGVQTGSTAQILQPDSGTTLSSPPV
Procedure: as §1, §2, §3

PDGFRA (PDGFR alpha) = biological target: T9, PDGFRA (PDGFR alpha) (Homo sapiens, UniProt P16234); assay: In vitro kinase assay (Z′-LYTE); assay type: biochemical; details: read-out: % of inhibition of the kinase compared to the control
T9 construct: purchased Invitrogen
Procedure: as §1, §2, §3

PDGFRB = biological target: T10, PDGFRB (Homo sapiens, UniProt P09619); assay: In vitro kinase assay (Z′-LYTE); assay type: biochemical; details: read-out: % of inhibition of the kinase compared to the control
T10 construct: purchased Invitrogen
Procedure: as §1, §2, §3

SRC = biological target: T11, SRC (Homo sapiens, UniProt P12931); assay: In vitro kinase assay (Z′-LYTE); assay type: biochemical; details: read-out: % of inhibition of the kinase compared to the control
T11 construct: purchased Invitrogen
T11 sequence (P12931 whole entry): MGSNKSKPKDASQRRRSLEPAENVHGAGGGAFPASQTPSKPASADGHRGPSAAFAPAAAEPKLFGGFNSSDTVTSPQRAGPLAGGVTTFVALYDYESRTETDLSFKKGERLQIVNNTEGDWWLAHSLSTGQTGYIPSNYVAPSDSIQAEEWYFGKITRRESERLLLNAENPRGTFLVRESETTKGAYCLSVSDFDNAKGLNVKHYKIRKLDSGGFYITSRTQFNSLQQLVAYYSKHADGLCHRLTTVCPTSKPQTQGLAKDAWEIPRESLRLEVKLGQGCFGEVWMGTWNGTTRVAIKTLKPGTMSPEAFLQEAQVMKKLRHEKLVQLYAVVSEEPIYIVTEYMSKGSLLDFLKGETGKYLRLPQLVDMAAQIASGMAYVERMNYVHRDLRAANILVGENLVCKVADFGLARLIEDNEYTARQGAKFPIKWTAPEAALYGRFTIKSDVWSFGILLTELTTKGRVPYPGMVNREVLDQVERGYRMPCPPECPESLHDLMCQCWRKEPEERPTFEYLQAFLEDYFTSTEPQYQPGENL
Procedure: as §1, §2, §3

VEGFR1 = biological target: T12, VEGFR1 (Homo sapiens, UniProt P17948); assay: In vitro kinase assay (Z′-LYTE); assay type: biochemical; details: read-out: % of inhibition of the kinase compared to the control
T12 construct: purchased Invitrogen
Procedure: as §1, §2, §3

BxPC-3 = assay: In vitro cell proliferation assay (MTT); assay type: cell-based; details: Homo sapiens, BXPC-3, 72 h
Procedure: (§4) Cancer cell lines (5×10^3 cells per well) or HUVEC (1×10^4 cells per well) or HRMEC (1×10^4 cells per well) were distributed in 96-well plates and incubating in duplicate with escalating concentrations (10 nM to 3 μM) of compounds for 72 hr. Cell proliferation was measured using MTT (3 [4,5-dimethylthiazol-2-yl]-2,5-diphenyltetrazolium bromide).

HUVEC = assay: In vitro cell proliferation assay (MTT); assay type: cell-based; details: Homo sapiens, 72 h
Procedure: as §4

HepG2 = assay: In vitro cell proliferation assay (MTT); assay type: cell-based; details: Homo sapiens, HepG2, 72 h
Procedure: as §4

With `COC(=O)c1cc2cc(NCc3cc(NC(=O)c4cccc5c4OCC5)ccc3C)cnc2[nH]1` [OR0618] the inhibition at 10 µM (ABL) was ≥ 50%, the inhibition at 10 µM (ABL T315I) was < 50% and the inhibition at 0.1 µM (BRAF) was < 50%. For the same molecule, the inhibition at 0.1 µM (EGFR (ErbB1)) was < 50%, the inhibition at 0.1 µM (EGFR (ErbB1) T790M L858R) was < 50% and the inhibition at 0.1 µM (FGFR1) was < 50%. The inhibition at 0.1 µM (FGFR2) was < 50%, the inhibition at 0.1 µM (KDR (VEGFR2)) was < 50% and the inhibition at 0.1 µM (PDGFRA (PDGFR alpha)) was ≥ 50%. The inhibition at 0.1 µM (PDGFRB) was < 50%, the inhibition at 0.1 µM (SRC) was ≥ 50% and the inhibition at 0.1 µM (VEGFR1) was < 50%. The EC50 (BxPC-3) was 100 to 1000 nM.
`COC(=O)c1cc2cc(NCc3cc(NS(=O)(=O)c4ccc(C)cc4)ccc3C)cnc2[nH]1` [OR0595] was tested, and the inhibition at 10 µM (ABL) was ≥ 50%, the inhibition at 10 µM (ABL T315I) was < 50% and the inhibition at 0.1 µM (BRAF) was < 50%. The inhibition at 0.1 µM (EGFR (ErbB1)) was < 50%, the inhibition at 0.1 µM (EGFR (ErbB1) T790M L858R) was < 50% and the inhibition at 0.1 µM (FGFR1) was < 50%. The inhibition at 0.1 µM (FGFR2) was < 50%, the inhibition at 0.1 µM (KDR (VEGFR2)) was < 50% and the inhibition at 0.1 µM (PDGFRA (PDGFR alpha)) was < 50%. For the same molecule, the inhibition at 0.1 µM (PDGFRB) was < 50%, the inhibition at 0.1 µM (SRC) was < 50% and the inhibition at 0.1 µM (VEGFR1) was < 50%. The EC50 (BxPC-3) was ≥ 1000 nM.
With `COC(=O)c1cc2cc(NC(=O)c3cc(NC(=S)c4cc(-n5cnc(C)c5)cc(C(F)(F)F)c4)ccc3C)cnc2[nH]1` [OR0643] the inhibition at 10 µM (ABL) was ≥ 50%, the inhibition at 10 µM (ABL T315I) was < 50% and the inhibition at 0.1 µM (BRAF) was < 50%. The inhibition at 0.1 µM (EGFR (ErbB1)) was < 50%, the inhibition at 0.1 µM (EGFR (ErbB1) T790M L858R) was < 50% and the inhibition at 0.1 µM (FGFR1) was < 50%. For the same molecule, the inhibition at 0.1 µM (FGFR2) was < 50%, the inhibition at 0.1 µM (KDR (VEGFR2)) was < 50% and the inhibition at 0.1 µM (PDGFRA (PDGFR alpha)) was < 50%. The inhibition at 0.1 µM (PDGFRB) was < 50%, the inhibition at 0.1 µM (SRC) was < 50% and the inhibition at 0.1 µM (VEGFR1) was < 50%. For the same molecule, the EC50 (BxPC-3) was ≥ 1000 nM.
For `COC(=O)c1cc2cc(NCc3cccc(C(=O)NCc4cccc(C(F)(F)F)c4)c3)cnc2[nH]1` [OR1004], the inhibition at 0.1 µM (BRAF) was < 50%, the inhibition at 0.1 µM (EGFR (ErbB1)) was < 50% and the inhibition at 0.1 µM (FGFR2) was < 50%. The inhibition at 0.1 µM (KDR (VEGFR2)) was < 50%, the inhibition at 0.1 µM (PDGFRA (PDGFR alpha)) was < 50% and the EC50 (HUVEC) was ≥ 1000 nM. The EC50 (HepG2) was ≥ 1000 nM.
In the case of `COC(=O)c1cc2cc(NCc3cccc(C(=O)Nc4ccc(CN5CCN(C)CC5)c(C(F)(F)F)c4)c3)cnc2[nH]1` [OR0635], the inhibition at 0.1 µM (BRAF) is reported as < 50%, the inhibition at 0.1 µM (EGFR (ErbB1)) is reported as < 50% and the inhibition at 0.1 µM (FGFR2) is reported as ≥ 50%. The inhibition at 0.1 µM (KDR (VEGFR2)) was ≥ 50%, the EC50 (HUVEC) was 100 to 1000 nM and the EC50 (HepG2) was ≥ 1000 nM.
`COC(=O)c1cc2cc(NCc3cc(NC(=O)c4cc(N5CCN(C)CC5)cc(C(F)(F)F)c4)ccc3C)cnc2[nH]1` [OR0698] was tested, and the inhibition at 0.1 µM (BRAF) was < 50%, the inhibition at 0.1 µM (EGFR (ErbB1)) was ≥ 50% and the inhibition at 0.1 µM (EGFR (ErbB1) T790M L858R) was < 50%. The inhibition at 0.1 µM (FGFR2) was < 50%, the inhibition at 0.1 µM (KDR (VEGFR2)) was < 50% and the inhibition at 0.1 µM (PDGFRA (PDGFR alpha)) was < 50%. For the same molecule, the inhibition at 0.1 µM (SRC) was ≥ 50%.
With `COC(=O)c1cc2cc(NCc3cc(NC(=O)Nc4cccc(C(F)(F)F)c4)ccc3C)cnc2[nH]1` [OR0603] the inhibition at 10 µM (ABL) was ≥ 50%, the inhibition at 10 µM (ABL T315I) was < 50% and the inhibition at 0.1 µM (BRAF) was < 50%. For the same molecule, the inhibition at 0.1 µM (EGFR (ErbB1)) was < 50%, the inhibition at 0.1 µM (EGFR (ErbB1) T790M L858R) was < 50% and the inhibition at 0.1 µM (FGFR1) was < 50%. For the same molecule, the inhibition at 0.1 µM (FGFR2) was < 50%, the inhibition at 0.1 µM (KDR (VEGFR2)) was < 50% and the inhibition at 0.1 µM (PDGFRA (PDGFR alpha)) was ≥ 50%. The inhibition at 0.1 µM (PDGFRB) was < 50%, the inhibition at 0.1 µM (SRC) was ≥ 50% and the inhibition at 0.1 µM (VEGFR1) was < 50%. The EC50 (BxPC-3) was 100 to 1000 nM.
In the case of `COC(=O)c1cc2cc(NCc3cc(NC(=O)Nc4cccnc4)ccc3C)cnc2[nH]1` [OR0896], the inhibition at 0.1 µM (BRAF) is reported as ≥ 50%, the inhibition at 0.1 µM (EGFR (ErbB1)) is reported as ≥ 50% and the inhibition at 0.1 µM (FGFR2) is reported as < 50%. For the same molecule, the inhibition at 0.1 µM (KDR (VEGFR2)) was < 50%, the EC50 (HUVEC) was 100 to 1000 nM and the EC50 (HepG2) was ≥ 1000 nM.

— patent US9493455B2, “Azaindole derivatives as inhibitors of protein kinases” (ORIBASE PHARMA, priority 2012, dated 2016)
